{"source": "patent US20090176714A1", "about": "“METHOD OF REDUCING THE EFFECTS OF ABeta AND COMPOSITIONS THEREFORE” (priority 2004, published 2009)", "key": {"[1]": {"test_system": "human cortical slices", "test": "Aβ-induced cell death (EthD-1/calcein AM) in human organotypic cortical cultures", "type": "cell-based", "description": "Four patients with intractable epilepsy who had elected to undergo a temporal lobe resection were recruited for this study. […] However, the overlying temporal cortex is normal. The age of the subjects ranged from 20 to 49. Brain tissue was obtained with informed consent from all patients.\nBrain tissue was removed in large, intact pieces by electrocautery. Tissue obtained from the temporal cortex was approximately 3 cm×2 cm×1.5-2 cm. Immediately following removal, the tissue was placed in ice-cold Neuregen-I media (Brainbits, Springfield, Ill.), a CO2 independent transport and holding medium, and transported to a tissue culture laboratory. Meninges were removed before cutting the tissue with a scalpel to produce blocks about 0.5-1 cm^3 such that each gyrus was kept as intact as possible and the cortical layers were preserved. As described previously, incisions were made perpendicular to the longitudinal axis of the gyrus and along the white matter (Verwer et al., Exp. Gerontol., 38:167-172 (2003)). A vibratome was used to cut 400 μm thick slices at a plane perpendicular to the longitudinal axis of the gyrus. Thus, all cortical layers and a small amount of white matter were included in a slice. Alternately, small tissue pieces, which were usually obtained from the hippocampus, were cut at 400 μm using a McIlwain tissue chopper. No more than 2 slices were placed on a filter insert with a 30 mm diameter and a 0.4 μm filter pore size (Millipore, Billerica, Mass.) held in 6-well culture plates. For the first 12 hours, slices were kept in 1-1.2 mL Neurobasal media with B-27 supplement, 0.5 mM glutamine, and 1% penicillin/streptomycin (Invitrogen). Subsequently, the media was changed every 2 days using 1 mL of media without antibiotics. Organotypic cultures were maintained in a humidified incubator at 37° C. in 5% O2, 5% CO2, and 90% N for 4 to 28 days.\nCell death and viability was determined on live slices using the fluorescent probes from Molecular Probes' Live/Dead Kit. After a 40 minute incubation in calcein AM (1:400) and ethidium homodimer (1:1000) in phosphate buffered saline, slices were visualized at 200× magnification with an inverted Nikon Diaphot 200 microscope using the Bio-Rad MRC-1024 Laser Scanning Confocal system (Hercules, Calif.). Random images were captured at the emission spectrum of each probe, and Scion Image software (Frederick, Md.) was used to quantify the number of live and dead cells. At least three areas were imaged and used to determine the percent death for each slice. The percent death was calculated as the number of EthD-1 positive cells divided by the total number of EthD-1 and calcein AM positive cells.\nβ-amyloid1-42 and reverse Aβ (Aβ42-1) were obtained from BACHEM (Torrance, Calif.). These peptides were dissolved in 0.1% NH3OH at 222 μM. For treatments, Aβ or reverse Aβ was aggregated at 50 μM in Neurobasal media with B-27 supplement and 0.5 mM glutamine at 37° C. for 24 hours. Then, the slice culture media was removed, and the slices were treated with 1 mL of 25 μM or 50 μM Aβ, reverse Aβ, or vehicle for 24 hour. Human TTR (Calbiochem) was added to slices together with the Aβ treatment at final concentrations of 0.03, 0.3, and 3 μM TTR. sAPPα was obtained from Sigma (St. Louis, Mo.). Unless otherwise stated, all sAPPα treatments were performed at 1 nM 48 hours prior to the addition of Aβ. The 10 amino acid fragment of the carboxyl-terminal region of sAPPα (592-601 of APP695; SEVKMDAEFR was added according to the same protocol for sAPPα. Because a variable amount of tissue was obtained from each patient, not all treatments were performed on all patients."}, "[2]": {"test_system": "hippocampi of mice", "test": "Stereotaxic injection into mouse hippocampus, TTR immunohistochemistry", "type": "in vivo", "procedure": "Ten week old B6/SJL mice were stereotaxically injected on the right side of their hippocampi with sAPPα, a 10 amino acid fragment, or a scrambled 10-mer to an estimated 1 nM intra-hippocampal concentration. The contralateral sides were injected with artificial cerebrospinal fluid. Each injection consisted of […] of solution delivered over the period of 10 minutes. 48 hours after surgery, the mice were perfused with cold PBS, and their hippocampi were dissected and stored in stabilizing solution for subsequent RNA extraction.\n48 hours after injection, mice were perfused with 4% PFA. The brains were harvested, hemisected, and fixed in 4% PFA overnight. They were then sunk in 30% sucrose for 24 hours, frozen, and sectioned. Sections were stained with cresyl violet for morphological verification of the injection site. Other sections were stained with goat anti-TTR, and biotinylated secondary antibody to show TTR protein expression, and ToPro3 as a nuclear marker. A control for nonspecific staining was done with goat IgG.\nFIG. 13 is a set of stained micrographs showing stereotactic injection of sAPPα decamer into hippocampus induces expression of TTR in normal mouse brain. […] Injection of 1.5 μl of 15.3 nM solution prepared in artificial cerebral spinal fluid (CSF) was performed to approximate a final concentration of 1 nM in the hippocampus. The contralateral side was injected with only artificial CSF and used as control. […] The DNA binding dye ToPro3 was used to visualize nuclei (blue)."}}}
{"substance": "SEVKMDAEFR", "values": [{"measurement": "Protection against Aβ-induced death (percent death)", "setting": "[1]; 1 nM 48 hours prior to 50 μM Aβ, four subjects, FIG. 6A", "value": "significant protection"}, {"measurement": "Amount of TTR in and around the CA1 hippocampal neurons, immunohistochemistry", "setting": "[2]; 1.5 μl of 15.3 nM solution (about 1 nM final) vs contralateral CSF injected hippocampus, FIG. 13", "value": "increased the amount of TTR"}, {"measurement": "Levels of TTR within treated hippocampi", "setting": "[2]; estimated 1 nM intra-hippocampal concentration, 48 hours after injection", "value": "increased levels of TTR"}]}
{"substance": "DAEF [peptide of 4 residues within the 10 residue peptide (residues 597-600)]", "values": [{"measurement": "Protection against Aβ toxicity (percent death)", "setting": "[1]; 50 μM Aβ, sample from one subject, FIG. 6A", "value": "protected against 50 μM Aβ toxicity"}, {"measurement": "TTR after injection into hippocampus", "setting": "[2]; preliminary data", "value": "increased TTR"}]}
{"substance": "β-amyloid1-42 [Aβ]", "values": [{"measurement": "Number of cells that have lost membrane integrity", "setting": "[1]; 50 μM Aβ", "value": "dramatic increase"}, {"measurement": "Percent death", "setting": "[1]; 50 μM Aβ vs 50 μM reverse Aβ, FIG. 6A", "value": "significantly increased"}]}
